# pIC50: −log10 of the molar value.
# How the values were obtained:
# platelets = experiment: In vivo platelet toxicity test; set-up: species or system C57 mice; conditions: multiple rounds i.p.
# Protocol: (§1) All drugs were mixed in 85% physiological saline, 5% DMSO (Sigma, D8418) and 10% Solutol HS 15 (Sigma, 42966), and administered to mice by intraperitoneal (i.p.) injection. To treat the bleomycin-injured young mice, A13 (2 mg/kg), A13bGa1 (5 mg/kg), or an empty vehicle control was administered three consecutive days per week for four weeks. A1331852 (abbreviated as A13) was purchased from MCE.
# (§2) A single administration of A13 or A13bG was performed. Female 5-6 week old C57 mice were treated with a single intraperitoneal injection. A13 and A13bG were administered in three different dose groups of 2, 5, and 20 mg/kg. Approximately 50 µl of blood was collected from each mouse at different time points into the EDTA tubes (RAM Scientific) by means of inner canthal blood extraction, and analyzed using a haematology analyzer for a blood routine examination and a platelet counting. Multiple administrations of A13 or A13bG were performed. Female 5-6 week old C57 mice were treated with multiple intraperitoneal injections. A13 and A13bG were administered in three different dose groups of 2, 5 and 20 mg/kg, three consecutive days per week, followed by a 4-day withdrawal for 3 weeks. The time points of administration were in the afternoon of days 0, 1, 2, 7, 8, 9, 14, 15, and 16, and the time points of blood collection and testing were in the morning of days 1, 3, 5, 8, 10, 12, 15, 17, and 19, respectively.
# For a blood routine examination, 50 µl of fresh blood was collected from each mouse and immediately mixed with EDTA. Blood samples were analyzed by Celltac Alpha MEK-6400 series haematology analyzer (Nihon Kohden, MEK-6400). Data were expressed as the number of different blood cells or platelets per µl of blood. For the serum biochemical analysis, the blood samples were collected, coagulated for 2 hours at room temperature or overnight at 4°C, and then centrifuged (1000 g, 10 minutes) to obtain serum. A 200 µl of serum was aliquoted and analyzed for alanine aminotransferase (ALT), aspartate aminotransferase (AST), uric acid (UA), and creatinine (CREA) by a chemistry analyzer (Mindray, BS-350E).
# [1] = system: mouse model of Bleomycin-induced pulmonary fibrosis; experiment: Bleomycin-induced pulmonary fibrosis mouse model; type: in vivo, C57 mice; conditions: A13 2 mg/kg
# Protocol: as §1
# Bleomycin was purchased from Selleck. […]. Drug treatment was initiated four days after modelling, and the drug was administered three consecutive days per week for four consecutive weeks, after which the mice were executed for material collection.
# All animals (including those found dead, dying, and euthanised) were autopsied, and the lung tissues were preserved. The lungs were separated, the fat and other tissues were removed, the surface fluid was absorbed using a filter paper, and the whole lungs were weighed (those found dead, dying, and euthanised) for calculation of the lung weight index. The right lung and bronchiole were fixed in 10% neutral buffered formalin solution, embedded in paraffin, sectioned, prepared into slices, and stained with HE for a histopathological and morphological observation of the lung. The degree of the lesions such as the inflammatory cell infiltration in the lung tissue were graded according to a 4-grade classification (slight, mild, moderate, severe) using a standard terminology for diagnosis and classification. The left lung tissue was clipped and stored temporarily below -60°C. Lung weight index(%) = lung weight/body weight × 100%. [formula]
# Masson trichrome stain kit (Solarbio, G1340) was used to detect fibrosis in the lung tissue. The formalin-fixed, and paraffin-embedded lung sections were dewaxed with xylene, and then rehydrated with 100% alcohol, 95% alcohol and distilled water. The sections were then stained according to the manufacturer's instructions. Afterwards, the sections were rapidly dehydrated with 95% alcohol and 100% alcohol, cleaned with xylene and covered with the coverslips. […]
# [2] = Daily observation of mice during multiple administration; type: in vivo, C57 mice; conditions: after 3 consecutive rounds of administration
# Protocol: as §2
# [3] = system: induced senescent HEF cell; experiment: In vitro compound screening, cell viability test (CCK-8); type: cell-based, human; conditions: HEF-ETO, Figure 1C
# [4] = system: induced senescent A549 cell; experiment: as above; type: cell-based, human; conditions: for killing activity on the senescent cells compared with ABT-263: A549-CDDP, Figure 1B; for senescent cell killing activity and selectivity in vitro (screening): induced senescent A549 cell model, Figure 1A
# senescent A549 cells = experiment: Cell killing activity assay (CCK-8), Example 7; type: cell-based, human; conditions: three days; for selective killing of the senescent cells: A549-induced senescence cell model, up to 25 µM
# Protocol: (§3) Preparation of the cell plates: The non-senescent, and the induced senescent HEF cells and A549 cells were taken respectively, digested with trypsin, and centrifuged at 1000 rmp for 5 minutes. The supernatants were removed, and the cells were resuspended in fresh DMEM medium containing 10% foetal bovine serum for counting. The cell density was adjusted so that the density of the non-senescent cells was at 4000 cells/100 µL and the density of the senescent cells was at 7000 cells/100 µL. The cell suspension was added to the 96-well transparent cell culture plates at 100 µL per well. Note that the edge wells of the 96-well plate were not used for the test wells, and 300 µL PBS is added separately to reduce the medium evaporation. The cell-spread 96-well plates were put back into the incubator at 37°C for the overnight incubation until the cells adhered to the wall.
# (§4) Formulation of the drug concentration gradients: After the cells adhered to the wall on the second day, the small molecule compounds (d-12, d-11, and d-4) to be tested for activity are ready to be added. […] 3 parallel replicate wells were set up for each test drug concentration. The 96-well plate was put back into the incubator at 37°C, and the cell survival was tested after three days.
# (§5) Detection of the cell survival after the drug treatment using the CCK-8 method: Three days after the addition of the drug, the well plate was removed, the supernatant was discarded, and 100 µL of the pre-prepared CCK-8 working solution was added to each well. The CCK-8 working solution was obtained by diluting the CCK8 stock solution (C0041, Beyotime) with the serum-free DMEM medium in 10-fold volume. The 96-well plate added with the CCK-8 working solution was put back to the incubator at 37°C and incubated for 0.5-2 hours. The plate was taken out to determine the absorbance value (OD value) of each well at the wavelength of 450 nm. The cell viability in each experimental group was calculated. The following formula was used: the relative cell viability (%) = […] x 100 %.
# non-senescent HEF cells = experiment: Cell killing activity assay (CCK-8), Example 7; type: cell-based, human; conditions: 25 µM
# Protocol: as §3, §4, §5
# non-senescent A549 cells = experiment: Cell killing activity assay (CCK-8), Example 7; type: cell-based, human; conditions: 25 µM
# Protocol: as §3, §4, §5
# senescent HEF cells = experiment: Cell killing activity assay (CCK-8), Example 7; type: cell-based, human; conditions: HEF-induced senescence cell model, up to 25 µM, three days
# Protocol: as §3, §4, §5
# [5] = lung HE, number of animals of 6, A13bGa1 5 mg/kg
# [6] = number of animals of 6, A13bGa1 5 mg/kg
structure (smiles),measurement,setting,value
"Cc1c(-c2ccc(N3CCc4cccc(C(=O)Nc5nc6ccccc6s5)c4C3)nc2C(=O)O)cnn1CC12CC3CC(CC(C3)C1)C2 [A13, 3-[1-(adamantan-1-ylmethyl)-5-methylpyrazol-4-yl]-6-{8-[(1,3-benzothiazol-2-yl)carbamoyl]-3,4-dihydro-1H-isoquinolin-2-yl}pyridine-2-carboxylic acid]",toxic effects on the platelets,"platelets; 3 consecutive days per week for 3 weeks, 2 mg/kg",very serious toxic effects on the platelets
same,toxic effects on the platelets,"platelets; 3 consecutive days per week for 3 weeks, 2, 5 and 20 mg/kg",strong destructive effects on the platelets
same,pathological manifestations of the pulmonary fibrosis (Masson staining),[1]; A13bGa1 5 mg/kg i.p.,not improved
same,lung index,"[1]; A13bGa1 5 mg/kg i.p., 3 consecutive days per week for 4 weeks",no improvement
same,inflammation and consolidation of the mouse lungs (pathological sections),"[1]; A13bGa1 5 mg/kg i.p., HE staining",no improvement was observed
same,"Bleeding, alveolar/interstitial: mild (++)",[1]; [5],2
same,"Bleeding, alveolar/interstitial: moderate (+++)",[1]; [5],0
same,"Bleeding, alveolar/interstitial: negative (-)",[1]; [5],2
same,"Bleeding, alveolar/interstitial: slight (+)",[1]; [5],2
same,"Exudative oedema, alveolar: mild (++)",[1]; [5],1
same,"Exudative oedema, alveolar: moderate (+++)",[1]; [5],1
same,"Exudative oedema, alveolar: negative (-)",[1]; [5],0
same,"Exudative oedema, alveolar: severe (++++)",[1]; [5],3
same,"Exudative oedema, alveolar: slight (+)",[1]; [5],1
same,The infiltration of the inflammatory cells: mild (++),[1]; [5],2
same,The infiltration of the inflammatory cells: moderate (+++),[1]; [5],1
same,The infiltration of the inflammatory cells: negative (-),[1]; [5],1
same,The infiltration of the inflammatory cells: slight (+),[1]; [5],2
same,Thickening and consolidation of the pulmonary septum: mild (++),[1]; [5],2
same,Thickening and consolidation of the pulmonary septum: moderate (+++),[1]; [5],1
same,Thickening and consolidation of the pulmonary septum: negative (-),[1]; [5],0
same,Thickening and consolidation of the pulmonary septum: severe (++++),[1]; [5],2
same,Thickening and consolidation of the pulmonary septum: slight (+),[1]; [5],1
same,degree of fibrosis in the lungs using Masson staining: Moderately strong positive (+++),[1]; [6],1
same,degree of fibrosis in the lungs using Masson staining: extremely strong positive (++++),[1]; [6],2
same,degree of fibrosis in the lungs using Masson staining: moderately positive (++),[1]; [6],1
same,degree of fibrosis in the lungs using Masson staining: not positive (-),[1]; [6],0
same,degree of fibrosis in the lungs using Masson staining: weakly positive (+),[1]; [6],2
same,"mice depilated, dispirited and in poor state",[2]; 5 mg/kg i.p.,2/4
same,"mice depilated, dispirited and in poor state",[2]; 20 mg/kg i.p.,2/4
same,killing activity on the senescent cells compared with ABT-263,[3],higher than that of the classical small molecule inhibitor ABT-263
same,killing activity on the senescent cells compared with ABT-263,[4],higher than that of the classical small molecule inhibitor ABT-263
same,senescent cell killing activity and selectivity in vitro (screening),[4],good senescent cell killing activity and selectivity in vitro
CN(C)CC#Cc1ccc(OCCCc2sc(N3CCc4cccc(C(=O)Nc5nc6ccccc6s5)c4C3)nc2C(=O)O)c(F)c1 [A1155463],killing activity on the senescent cells compared with ABT-263,[3],higher than that of the classical small molecule inhibitor ABT-263
same,killing activity on the senescent cells compared with ABT-263,[4],higher than that of the classical small molecule inhibitor ABT-263
same,senescent cell killing activity and selectivity in vitro (screening),[4],good senescent cell killing activity and selectivity in vitro
Cc1sc2c(c1C)C(c1ccc(Cl)cc1)=N[C@@H](CC(=O)Nc1ccc(OCCOCCOCCOCCNc3cccc4c3C(=O)N(C3CCC(=O)NC3=O)C4=O)cc1)c1nnc(C)n1-2 (stereo partly drawn) [ARV825],senescent cell killing activity and selectivity in vitro (screening),[4],better in vitro killing activity
Cc1ncsc1-c1ccc(CNC(=O)[C@@H]2C[C@@H](O)CN2C(=O)[C@@H](NC(=O)COCCOCCOCCNC(=O)C[C@@H]2N=C(c3ccc(Cl)cc3)c3c(sc(C)c3C)-n3c(C)nnc32)C(C)(C)C)cc1 [MZ1],senescent cell killing activity and selectivity in vitro (screening),[4],better in vitro killing activity
CC(=O)OC[C@H]1O[C@@H](Oc2ccc(C(Cc3cn(CCCN4CCOCC4)nn3)OC(=O)c3nc(N4CCc5cccc(C(=O)Nc6nc7ccccc7s6)c5C4)ccc3-c3cnn(CC45CC6CC(CC(C6)C4)C5)c3C)cc2[N+](=O)[O-])[C@H](OC(C)=O)[C@@H](OC(C)=O)[C@H]1OC(C)=O (stereo partly drawn) [d-11],selective killing of the senescent cells,senescent A549 cells,selective killing of the senescent cells
same,killing of the non-senescent cells at the highest concentration,non-senescent HEF cells,none of the three molecules killed the non-senescent cells
same,killing of the non-senescent cells at the highest concentration,non-senescent A549 cells,none of the three molecules killed the non-senescent cells
same,selective killing of the senescent cells,senescent HEF cells,selective killing of the senescent cells
Cc1c(-c2ccc(N3CCc4cccc(C(=O)Nc5nc6ccccc6s5)c4C3)nc2C(=O)OC(Cc2cn(CCCN3CCOCC3)nn2)c2ccc(O[C@@H]3O[C@H](CO)[C@H](O)[C@H](O)[C@H]3O)c([N+](=O)[O-])c2)cnn1CC12CC3CC(CC(C3)C1)C2 (stereo partly drawn) [d-12],selective killing of the senescent cells,senescent A549 cells,selective killing of the senescent cells
same,pIC50,"senescent A549 cells; Cisplatin-induced senescent A549 cells, CCK-8",~5.16
same,killing of the non-senescent cells at the highest concentration,non-senescent HEF cells,none of the three molecules killed the non-senescent cells
same,killing of the non-senescent cells at the highest concentration,non-senescent A549 cells,none of the three molecules killed the non-senescent cells
same,selective killing of the senescent cells,senescent HEF cells,selective killing of the senescent cells
Cc1sc2c(c1C)C(c1ccc(Cl)cc1)=N[C@@H](CC(=O)NCCCCCCCCNC(=O)COc1cccc3c1C(=O)N(C1CCC(=O)NC1=O)C3=O)c1nnc(C)n1-2 (stereo partly drawn) [dBET6],senescent cell killing activity and selectivity in vitro (screening),[4],better in vitro killing activity

# Reference: patent EP4574175A1, “PRODRUG FOR ANTI-AGING RELATED DISEASES AND USE METHOD THEREFOR” (BEIJING SUNCELL BIO-MEDICAL CO., LTD., priority 2022, dated 2024)
